PubChem BioAssay (NCI)
Values joined by “and” are separate entries in the source; they are usually repeats but may differ in a detail not shown here. Identical values can stand only once.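 In this assay, cells in 96-well plates receive the compound at five concentrations for 48 hours. Endpoints are linearly interpolated between the surrounding concentrations. GI50: concentration for 50% inhibition of growth. TGI: concentration producing complete growth inhibition.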

How the values were obtained:
Test in all cases: NCI-60 cell line screen, 48 h
BT-549 breast = test system: BT-549 breast
COLO 205 colon = test system: COLO 205 colon
HCT-116 colon = test system: HCT-116 colon
HOP-62 NSCLC = test system: HOP-62 NSCLC
IGROV1 ovarian = test system: IGROV1 ovarian
OVCAR-3 ovarian = test system: OVCAR-3 ovarian
OVCAR-5 ovarian = test system: OVCAR-5 ovarian
OVCAR-8 ovarian = test system: OVCAR-8 ovarian
SF-295 CNS = test system: SF-295 CNS
UO-31 renal = test system: UO-31 renal

| SMILES | GI50 (BT-549 breast) | TGI (BT-549 breast) [µM] | GI50 (COLO 205 colon) | TGI (COLO 205 colon) [µM] | GI50 (HCT-116 colon) | TGI (HCT-116 colon) [µM] | GI50 (HOP-62 NSCLC) | TGI (HOP-62 NSCLC) | GI50 (IGROV1 ovarian) | TGI (IGROV1 ovarian) | GI50 (OVCAR-3 ovarian) | TGI (OVCAR-3 ovarian) [µM] | GI50 (OVCAR-5 ovarian) | TGI (OVCAR-5 ovarian) [µM] | GI50 (OVCAR-8 ovarian) | TGI (OVCAR-8 ovarian) [µM] | GI50 (SF-295 CNS) | TGI (SF-295 CNS) | GI50 (UO-31 renal) | TGI (UO-31 renal) |
| --- | --- | --- | --- | --- | --- | --- | --- | --- | --- | --- | --- | --- | --- | --- | --- | --- | --- | --- | --- | --- |
| COc1cc2c(Nc3cc(Cl)c(OC)c(Cl)c3)c(C#N)cnc2cc1OCCCN1CCN(C)CC1 | 3.83 µM | 13.8 | 2.02 µM | 3.79 | 1.21 µM | 3.49 | 3.39 µM | 12.1 µM | 0.189 µM | 12 µM | 1.65 µM | 4.49 | 1.56 µM | 11.7 | 1.24 µM | 4.33 | 2.49 µM | 7.45 µM | 0.641 µM | 5.47 µM |
| CCCC(=O)C1=C(O)C(Cc2c(O)c(C)c(O)c(C(=O)CCC)c2O)=C(O)C(C)(C)C1=O |  | > 50 |  | > 50 |  | > 50 |  | > 50 µM |  | > 50 µM |  | > 50 |  | 33.9 |  | > 50 |  | > 50 µM |  | > 50 µM |
| COC(c1ccc(C(C)(C)C)cc1)(c1ccc(C(C)(C)C)cc1)c1ccc(C(C)(C)C)cc1 |  | > 100 |  | > 100 |  | > 100 |  | > 100 µM |  | > 100 µM |  | > 100 |  | > 100 |  | > 100 |  | > 100 µM |  | > 100 µM |
| Cc1ccc(OCCOCCOCCOCCOc2ccc(C)n(O)c2=S)c(=S)n1O | 0.52 µM | > 100 | 0.0484 µM | > 100 | < 0.01 µM | > 100 | 0.184 µM | > 100 µM | < 0.01 µM | 54.3 µM | < 0.01 µM | 50.8 | 0.408 µM | > 100 | < 0.0137 µM | > 100 | 0.0261 µM | > 100 µM | 0.0177 µM | 4.14 µM |
| NCCNCC1CCNCC1 |  | > 100 |  | > 100 |  | > 100 |  | > 100 µM |  | > 100 µM |  | > 100 |  | > 100 |  | > 100 |  | > 100 µM |  | > 100 µM |
| O=C(/C(=C\c1c(-c2ccccc2)[nH]c2ccccc12)S(=O)(=O)c1ccccc1)c1ccccc1 | > 100 µM | > 100 | 7.8 µM | > 100 | 4.89 µM | > 100 | > 100 µM | > 100 µM | > 100 µM | > 100 µM | > 100 µM | > 100 | > 100 µM | > 100 | > 100 µM | > 100 | 3.47 µM | > 100 µM | > 100 µM | > 100 µM |
| COC(=O)c1cc2c(o1)-c1nccc3c1c(nc1ccccc13)C2=O | 4.05 µM | 18.2 | 14.9 µM | 29.3 | 1.92 µM | 5.95 | 1.4 µM | 11 µM | 1.4 µM | 4.42 µM | 1.26 µM | 4.37 | 17.3 µM | 34.3 | 2.1 µM | 6.38 | 4.51 µM | 18.3 µM | 5.49 µM | 24.3 µM |
| COc1ccc(-c2ccc3c(N4CCOC[C@@H]4C)nc(N4CCOC[C@@H]4C)nc3n2)cc1CO | 0.00348 µM and 0.0162 µM |  | 0.00502 µM and 0.0474 µM |  | 0.00858 µM and 0.0734 µM | > 100 | 0.00514 µM and 0.028 µM | 1.65 µM and 0.527 µM | 0.00654 µM and < 0.01 µM | 0.0744 µM and 0.0607 µM | 0.00504 µM and 0.0334 µM | > 34.6 | 0.00607 µM and 0.0331 µM | 60.3 | 0.00759 µM and 0.0351 µM | 3.39 | 0.00412 µM and < 0.011 µM | 0.0462 µM and 0.18 µM | 0.003 µM and < 0.01 µM | 0.0758 µM and 0.0806 µM |
